The test concerns the target T1, FBG domain of Tenascin C (FBG-C, FBG-BAP, hFBG-C) (Homo sapiens, UniProt P24821).
T1 sequence (P24821 1976-2193): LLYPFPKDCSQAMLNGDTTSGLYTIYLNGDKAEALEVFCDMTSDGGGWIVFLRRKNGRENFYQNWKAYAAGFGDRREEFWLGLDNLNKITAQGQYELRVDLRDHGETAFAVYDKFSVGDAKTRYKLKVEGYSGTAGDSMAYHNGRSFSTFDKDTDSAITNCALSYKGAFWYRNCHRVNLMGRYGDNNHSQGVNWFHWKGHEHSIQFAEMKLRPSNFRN
The test is described as follows: SPR, biotinylated FBG on SA chip. The test is classed as binding.

The structures appear in SMILES notation.

On to `COc1ccc(CN(C)CCc2cnn(C)c2)cc1OC[C@@H](O)CN1CCCCC1` [compound 830, 73494830], for which the affinity, expressed as Kd, was 553 µM.

For the origin of these results see paper doi:10.1101/2025.05.23.655116v1 (biorxiv, 2025).
